Assay results: patent US6025375A, “4,5-diaryloxazole derivatives” (Fujisawa Pharmaceutical Co., Ltd., priority 1993, dated 2000)

Tests used:
[1] = test system: human platelet aggregation induced by ADP; test: Inhibition of human platelet aggregation induced by ADP; format: cell-based; conditions: 3.2 × 10^-7 M, platelet rich plasma, ADP 2.5 μM, mean ± S.E.
Description: i) Inhibition of human platelet aggregation induced by ADP
Isomer C obtained in Example 2.
Human blood was obtained from healthy volunteers and mixed with 1/10 volume of 3.8% sodium citrate, pH 7.4. The citrate blood was centrifuged at 150×g for 10 minutes and the platelet rich plasma (PRP) was removed. The remaining blood was centrifuged for a further 10 minutes at 1500×g to prepare the platelet poor plasma (PPP), which was used as a reference for platelet aggregation. Aggregation studies were carried out using HEMATRACER 801 (NBS, Japan), a 8 channel aggregometer. 25 μl sample solution and 225 μl of PRP were mixed and stirred at 1000 rpm for 2 minutes at 37° C. Aggregation was induced by ADP solution at the final concentration of 2.5 μM.

[2] = test system: mean arterial blood pressure; test: Effect on mean arterial blood pressure in conscious rats; format: in vivo; conditions: 3.2 mg/kg, orally, suspended in 0.5% methyl cellulose; conscious male Sprague-Dawley rats
Description: ii) Effect on mean arterial blood pressure in conscious rats
Sodium [3-[[(1S)-2-(4,5-diphenyloxazol-2-yl)-2-cyclohexen-1-yl]methyl]phenoxy]acetate
Male Sprague-Dawley rats, aged 8-9 weeks, were anesthetized with diethyl ether and a polyethylene cannula filled with heparin solution was inserted into the femoral artery of the rats to measure mean blood pressure. Mean blood pressure was measured with a pressure transducer and recorded on a polygraph. Two hours after operation, the test compound suspended in 0.5% methyl cellulose was administered orally in a volume of 5 ml/kg. Oral hypotensive effect of the test compound was expressed as the maximal decrease (R max). Briefly, R max was expressed as maximal % change compared to mean blood pressure prior to the administration of the test compound.

Row | Compound | inhibition at 0.32 µM [1] [%] | R max (%): maximal % change (decrease) in mean blood pressure compared to that prior to administration [2] [%]
1 | O=C(O)COc1cccc(CC2CCCCC2c2nc(-c3ccccc3)c(-c3ccccc3)o2)c1 (single isomer, unassigned) [Isomer C, cis- or trans-1-[(3-carboxymethoxyphenyl)methyl]-2-(4,5-diphenyloxazol-2-yl)cyclohexane] | 100 ± 0.4 | –
2 | O=C(O)COc1cccc(C[C@@H]2CCCC=C2c2nc(-c3ccccc3)c(-c3ccccc3)o2)c1 [(+)-Sodium [3-[[(1S)-2-(4,5-diphenyloxazol-2-yl)-2-cyclohexen-1-yl]methyl]phenoxy] acetate] | – | 31.3
